Reference: patent US20230000813A1, “COMPOUND FOR THE TREATMENT OF BOVINE OR SWINE RESPIRATORY DISEASE” (Intervet Inc., priority 2016, published 2023)
≈ marks a conversion by molar mass, not a printed value.

What was measured:
Assay in all cases: MIC, broth-microdilution (CLSI VET01-A4)
Format in all cases: cell-based
[1] = system: Mannheimia haemolytica MH 13093 (XB0472-6014.1, BRD field isolate)
In short: (§1)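 Broth microdilution per CLSI VET01-A4 using doubling dilution series of compound. MIC taken as the lowest concentration with no turbidity visible to the unaided eye, interpreted per CLSI VET01-S3.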

[2] = system: Mannheimia haemolytica MH 13065 (XB0446-6003.9, BRD field isolate)
In short: as §1

[3] = system: Pasteurella multocida PM 6391 (ATCC 43137, reference strain); settings: Pasteurella multocida PM 6391; for MIC: read-out: MIC PM 6391
In short: (§2)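 Test compound is serially diluted twofold across microdilution trays, bacteria are grown, and wells are inspected by eye. The lowest concentration showing no growth is recorded as the MIC.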

[4] = system: Pasteurella multocida PM 10775 (080130003051, BRD field isolate); settings: Pasteurella multocida PM 10775; for MIC: read-out: MIC PM 10775
In short: as §2

[5] = system: Pasteurella multocida PM 6267 (P 2225 (L386), reference strain, mouse infection strain); settings: Pasteurella multocida PM 6267; for MIC: read-out: MIC PM 6267
In short: as §2

[6] = system: Mannheimia haemolytica MH 10720 (154, BRD field isolate); settings: Mannheimia haemolytica MH 10720; for MIC: read-out: MIC MH 10720
In short: as §2

[7] = system: Mannheimia haemolytica MH 12587 (1071, BRD field isolate, macrolide-resistance: erm+, E+); settings: Mannheimia haemolytica MH 12587, macrolide-resistant
In short: as §2

[8] = system: Mannheimia haemolytica MH 6357 (M7/2, reference strain, cattle infection strain); settings: Mannheimia haemolytica MH 6357; read-out: MIC MH 6357
In short: as §2

[9] = system: Pasteurella multocida PM 12080 (IV102277-0093, BRD field isolate); settings: Pasteurella multocida PM 12080; for MIC: read-out: MIC PM 12080
In short: as §2

[10] = system: Mannheimia haemolytica MH 6374 (ATCC 33396, reference strain); settings: Mannheimia haemolytica MH 6374; read-out: MIC MH 6374
In short: as §2

| Compound | MIC [1] | MIC [2] | MIC [3] | MIC PM 10775 [4] | MIC PM 6267 [5] | MIC MH 10720 [6] | MIC MH 12587 [7] | MIC [8] | MIC [9] | MIC [10] | MIC PM 12080 [9] | MIC PM 6391 [3] | MIC [4] | MIC [5] | MIC [6] |
| --- | --- | --- | --- | --- | --- | --- | --- | --- | --- | --- | --- | --- | --- | --- | --- |
| CC(C)C(NC(=O)c1ccc(C#Cc2ccc(CNCc3cccnc3)cc2)cc1)C(=O)NO (stereo not drawn) [Compound 287] | 0.8 µM (≈ 0.365 µg/mL) | 0.8 µM (≈ 0.365 µg/mL) | 0.4 µM (≈ 0.183 µg/mL) | <=0.1 μM | <=0.1 μM | <=0.1 μM | 0.8 µM (≈ 0.365 µg/mL) | 0.4 µM (≈ 0.183 µg/mL) | 0.2 µM (≈ 0.0913 µg/mL) | 0.4 µM (≈ 0.183 µg/mL) | – | – | – | – | – |
| COc1ccc(CNCc2ccc(C#Cc3ccc(C(=O)N[C@H](C(=O)NO)[C@@H](C)O)cc3)s2)cc1 [Compound 306] | 0.8 µM (≈ 0.395 µg/mL) | 0.4 µM (≈ 0.197 µg/mL) | 0.2 µM (≈ 0.0987 µg/mL) | <=0.1 μM | <=0.1 μM | <=0.1 μM | 0.8 µM (≈ 0.395 µg/mL) | 0.4 µM (≈ 0.197 µg/mL) | 0.2 µM (≈ 0.0987 µg/mL) | 0.4 µM (≈ 0.197 µg/mL) | – | – | – | – | – |
| C[C@@H](O)[C@H](NC(=O)c1ccc(C#Cc2ccc(N)cc2)cc1)C(=O)NO [C. 245, 4-[2-(4-aminophenyl)ethynyI]-N-[(1S,2R)-2-hydroxy-1-(hydroxycarbamoyl)propyl]benzamide] | 0.4 µM (≈ 0.141 µg/mL) | 0.4 µM (≈ 0.141 µg/mL) | 0.2 µM (≈ 0.0707 µg/mL) | <=0.1 μM | <=0.1 μM | <=0.1 μM | 0.8 µM (≈ 0.283 µg/mL) | 0.2 µM (≈ 0.0707 µg/mL) | – | 0.4 µM (≈ 0.141 µg/mL) | <=0.1 μM | – | – | – | – |
| C#CCNCc1ccc(C#Cc2ccc(C(=O)NC(C(=O)NO)C(C)(C)N)cc2)s1 (racemic) [Compound 633] | 0.8 µM (≈ 0.34 µg/mL) | 0.8 µM (≈ 0.34 µg/mL) | 0.2 µM (≈ 0.0849 µg/mL) | <=0.1 μM | <=0.1 μM | <=0.1 μM | 0.8 µM (≈ 0.34 µg/mL) | 0.8 µM (≈ 0.34 µg/mL) | 0.2 µM (≈ 0.0849 µg/mL) | 0.4 µM (≈ 0.17 µg/mL) | – | – | – | – | – |
| CC(C)(N)C(NC(=O)c1ccc(C#Cc2ccc(CN3CC=CC3)s2)cc1)C(=O)NO (racemic) [Compound 649] | 0.8 µM (≈ 0.351 µg/mL) | 0.4 µM (≈ 0.175 µg/mL) | 0.2 µM (≈ 0.0877 µg/mL) | <=0.1 μM | <=0.1 μM | <=0.1 μM | 0.8 µM (≈ 0.351 µg/mL) | 0.8 µM (≈ 0.351 µg/mL) | 0.2 µM (≈ 0.0877 µg/mL) | 0.4 µM (≈ 0.175 µg/mL) | – | – | – | – | – |
| C[C@@H](O)[C@H](NC(=O)c1ccc(C#Cc2ccc(CNCc3ccccc3)s2)cc1)C(=O)NO [Compound 195] | 0.4 µM (≈ 0.185 µg/mL) | 0.4 µM (≈ 0.185 µg/mL) | – | <=0.1 μM | <=0.1 μM | <=0.1 μM | 0.8 µM (≈ 0.371 µg/mL) | 0.2 µM (≈ 0.0927 µg/mL) | – | 0.2 µM (≈ 0.0927 µg/mL) | <=0.1 μM | <=0.1 μM | – | – | – |
| CSC(C)(C)[C@H](NC(=O)c1ccc(C#Cc2ccc(CNCc3ccnc(Cl)c3)cc2)cc1)C(=O)NO [Compound 594] | 1.6 µM (≈ 0.859 µg/mL) | 1.6 µM (≈ 0.859 µg/mL) | 0.8 µM (≈ 0.43 µg/mL) | – | – | – | 1.6 µM (≈ 0.859 µg/mL) | 1.6 µM (≈ 0.859 µg/mL) | 0.8 µM (≈ 0.43 µg/mL) | 1.6 µM (≈ 0.859 µg/mL) | – | – | 0.2 µM (≈ 0.107 µg/mL) | 0.4 µM (≈ 0.215 µg/mL) | 0.4 µM (≈ 0.215 µg/mL) |
| CSCCNCc1ccc(C#Cc2ccc(C(=O)NC(C(=O)NO)C(C)(C)N)cc2)s1 (racemic) [Compound 635] | 0.8 µM (≈ 0.369 µg/mL) | 0.8 µM (≈ 0.369 µg/mL) | 0.4 µM (≈ 0.184 µg/mL) | <=0.1 μM | <=0.1 μM | <=0.1 μM | 1.6 µM (≈ 0.737 µg/mL) | 1.6 µM (≈ 0.737 µg/mL) | – | 0.4 µM (≈ 0.184 µg/mL) | <=0.1 μM | – | – | – | – |
| CC(C)(O)C(NC(=O)c1ccc(C#Cc2ccc(CNCc3ccco3)cc2)cc1)C(=O)NO (stereo not drawn) [Compound 577] | 0.4 µM (≈ 0.185 µg/mL) | 0.2 µM (≈ 0.0923 µg/mL) | – | <=0.1 μM | <=0.1 μM | <=0.1 μM | 0.8 µM (≈ 0.369 µg/mL) | 0.4 µM (≈ 0.185 µg/mL) | – | 0.2 µM (≈ 0.0923 µg/mL) | <=0.1 μM | <=0.1 μM | – | – | – |
| CC(C)(N)C(NC(=O)c1ccc(C#Cc2ccc(CNCc3ccnc(Cl)c3)cc2)cc1)C(=O)NO (racemic) [Compound 313] | 1.6 µM (≈ 0.81 µg/mL) | 1.6 µM (≈ 0.81 µg/mL) | – | – | <=0.1 μM | – | 1.6 µM (≈ 0.81 µg/mL) | 0.8 µM (≈ 0.405 µg/mL) | – | 0.8 µM (≈ 0.405 µg/mL) | <=0.1 μM | <=0.1 μM | 0.2 µM (≈ 0.101 µg/mL) | – | 0.4 µM (≈ 0.202 µg/mL) |
| Cc1ccc(CNCc2ccc(C#Cc3ccc(C(=O)NC(C(=O)NO)C(C)C)cc3)cc2)cc1 (stereo not drawn) [Compound 292] | 0.8 µM (≈ 0.376 µg/mL) | 0.8 µM (≈ 0.376 µg/mL) | 0.4 µM (≈ 0.188 µg/mL) | <=0.1 μM | – | – | 1.6 µM (≈ 0.751 µg/mL) | 0.4 µM (≈ 0.188 µg/mL) | 0.4 µM (≈ 0.188 µg/mL) | 0.8 µM (≈ 0.376 µg/mL) | – | – | – | 0.2 µM (≈ 0.0939 µg/mL) | 0.4 µM (≈ 0.188 µg/mL) |
| Cc1ccc(CNCc2ccc(C#Cc3ccc(C(=O)NC(C(=O)NO)C(C)(C)O)cc3)cc2)cc1 (stereo not drawn) [Compound 579] | 0.8 µM (≈ 0.388 µg/mL) | 0.4 µM (≈ 0.194 µg/mL) | 0.2 µM (≈ 0.0971 µg/mL) | <=0.1 μM | <=0.1 μM | <=0.1 μM | 1.6 µM (≈ 0.777 µg/mL) | 0.8 µM (≈ 0.388 µg/mL) | – | 0.4 µM (≈ 0.194 µg/mL) | <=0.1 μM | – | – | – | – |
| CC(C)C(NC(=O)c1ccc(C#Cc2ccc(CNCc3cccs3)cc2)cc1)C(=O)NO (stereo not drawn) [Compound 291] | 0.4 µM (≈ 0.185 µg/mL) | 0.2 µM (≈ 0.0923 µg/mL) | 0.2 µM (≈ 0.0923 µg/mL) | <=0.1 μM | <=0.1 μM | <=0.1 μM | 0.8 µM (≈ 0.369 µg/mL) | 0.2 µM (≈ 0.0923 µg/mL) | – | 0.4 µM (≈ 0.185 µg/mL) | <=0.1 μM | – | – | – | – |
| C[C@@H](O)[C@H](NC(=O)c1ccc(C#Cc2ccc(CN(C)Cc3ccccc3)s2)cc1)C(=O)NO [Compound 196] | 0.8 µM (≈ 0.382 µg/mL) | 0.8 µM (≈ 0.382 µg/mL) | – | <=0.1 μM | <=0.1 μM | <=0.1 μM | 1.6 µM (≈ 0.764 µg/mL) | 0.4 µM (≈ 0.191 µg/mL) | – | 0.8 µM (≈ 0.382 µg/mL) | <=0.1 μM | <=0.1 μM | – | – | – |
| C[C@@H](O)[C@H](NC(=O)c1ccc(C#Cc2ccc(CNC3CC3)cc2)cc1)C(=O)NO [C. 103] | 1.6 µM (≈ 0.652 µg/mL) | 0.4 µM (≈ 0.163 µg/mL) | 0.195 µM (≈ 0.0795 µg/mL) | <=0.1 μM | <=0.1 μM | – | 0.8 µM (≈ 0.326 µg/mL) | 0.391 µM (≈ 0.159 µg/mL) | – | 0.195 µM (≈ 0.0795 µg/mL) | <=0.1 μM | – | – | – | 0.2 µM (≈ 0.0815 µg/mL) |
